This note sets out measurements from patent US7569578B2, “Heterocyclic anti-migraine agents” (Bristol-Meyers Squibb Company, priority 2003, dated 2009).

Bounds are passed on as bounds.

One may read the IC50 as the concentration at which inhibition is half-maximal.

The target in this assay is T1, Human CGRP1 Receptor (Homo sapiens, UniProt O60894+Q16602).
T1 construct: endogenous in cells; host or cells: SK-N-MC cells (membrane homogenate)
T1 sequence (Q16602 23-461): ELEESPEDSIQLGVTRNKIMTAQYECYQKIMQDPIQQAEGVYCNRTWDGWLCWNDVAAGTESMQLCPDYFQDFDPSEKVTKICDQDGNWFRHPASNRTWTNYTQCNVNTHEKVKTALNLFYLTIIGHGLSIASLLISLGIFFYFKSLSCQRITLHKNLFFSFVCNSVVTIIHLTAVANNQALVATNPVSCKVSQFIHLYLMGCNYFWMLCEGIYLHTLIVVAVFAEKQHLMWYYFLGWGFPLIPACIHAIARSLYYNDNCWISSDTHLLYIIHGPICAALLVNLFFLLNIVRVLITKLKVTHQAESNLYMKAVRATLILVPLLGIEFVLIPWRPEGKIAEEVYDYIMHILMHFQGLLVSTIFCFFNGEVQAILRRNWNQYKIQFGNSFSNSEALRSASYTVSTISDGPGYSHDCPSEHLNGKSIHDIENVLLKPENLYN
T1 sequence (O60894 27-148): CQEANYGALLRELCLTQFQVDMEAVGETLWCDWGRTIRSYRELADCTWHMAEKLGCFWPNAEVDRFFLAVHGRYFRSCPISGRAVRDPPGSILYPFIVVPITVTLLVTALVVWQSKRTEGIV
The assay is described as follows: CGRP Binding Assay ([125I]-CGRP radioligand displacement, SK-N-MC membrane homogenate). The conditions noted are these: [125I]-CGRP displacement, SK-N-MC homogenate, room temperature 2 h; read-out: Human CGRP1 Receptor IC50. (In general: Loss of bound radioactivity is the signal in a displacement assay; it reports binding, not function.)
Turning to `Cc1cc(CC(NC(=O)N2CCC(N3Cc4ccccc4NC3=O)CC2)c2cc3ccccc3cn2)cc2cn[nH]c12` (stereo not drawn) [Example 50, N-(1-(isoquinolin-3-yl)-2-(7-methyl-1H-indazol-5-yl)ethyl)-4-(2-oxo-1,2-dihydroquinazolin-3(4H)-yl)piperidine-1-carboxamide], the IC50 was less than 10 nM.
Next, `Cc1cc(CC(NC(=O)N2CCC(N3Cc4cccc(F)c4NC3=O)CC2)c2cc3ccccc3cn2)cc2cn[nH]c12` (stereo not drawn) [Example 51, 4-(8-fluoro-2-oxo-1,2-dihydroquinazolin-3(4H)-yl)-N-(1-(isoquinolin-3-yl)-2-(7-methyl-1H-indazol-5-yl)ethyl)piperidine-1-carboxamide]: less than 10 nM; `Cc1cc(CC(OC(=O)N2CCC(N3Cc4cccc(F)c4NC3=O)CC2)c2cc3ccccc3cn2)cc2cn[nH]c12` (stereo not drawn) [Example 52, 1-(Isoquinolin-3-yl)-2-(7-methyl-1H-indazol-5-yl)ethyl 4-(8-fluoro-2-oxo-1,2-dihydroquinazolin-3(4H)-yl)piperidine-1-carboxylate]: less than 10 nM.
Next, `Cc1cc(CC(OC(=O)N2CCC(N3Cc4ccccc4NC3=O)CC2)c2cc3ccccc3cn2)cc2cn[nH]c12` (stereo not drawn) [Example 53, 1-(Isoquinolin-3-yl)-2-(7-methyl-1H-indazol-5-yl)ethyl 4-(2-oxo-1,2-dihydroquinazolin-3(4H)-yl)piperidine-1-carboxylate]: less than 10 nM; `Cc1cc(CC(OC(=O)N2CCC(N3Cc4ccccc4NC3=O)CC2)c2ccccn2)cc2cn[nH]c12` (stereo not drawn) [Example 54, 2-(7-methyl-1H-indazol-5-yl)-1-(pyridin-2-yl)ethyl 4-(2-oxo-1,2-dihydroquinazolin-3(4H)-yl)piperidine-1-carboxylate]: less than 10 nM; `Cc1cc(CC(OC(=O)N2CCC(N3Cc4cccc(F)c4NC3=O)CC2)c2ccccn2)cc2cn[nH]c12` (stereo not drawn) [Example 55, 2-(7-methyl-1H-indazol-5-yl)-1-(pyridin-2-yl)ethyl 4-(8-fluoro-2-oxo-1,2-dihydroquinazolin-3(4H)-yl)piperidine-1-carboxylate]: less than 10 nM.
With `Cc1cc(CC(OC(=O)N2CCC(N3Cc4ccccc4NC3=O)CC2)c2ccco2)cc2cn[nH]c12` (stereo not drawn) [Example 56, 1-(Furan-2-yl)-2-(7-methyl-1H-indazol-5-yl)ethyl 4-(2-oxo-1,2-dihydroquinazolin-3(4H)-yl)piperidine-1-carboxylate] the figure was 10 to 100 nM.
As to `Cc1cc(CC(OC(=O)N2CCC(N3Cc4ccccc4NC3=O)CC2)c2ccncc2)cc2cn[nH]c12` (stereo not drawn) [Example 57, 2-(7-Methyl-1H-indazol-5-yl)-1-(pyridin-4-yl)ethyl 4-(2-oxo-1,2-dihydroquinazolin-3(4H)-yl)piperidine-1-carboxylate], the IC50 is 100 to 1000 nM.
Consider `Cc1cc(CC(OC(=O)N2CCC(N3Cc4ccccc4NC3=O)CC2)c2cccnc2)cc2cn[nH]c12` (stereo not drawn) [Example 58, 2-(7-Methyl-1H-indazol-5-yl)-1-(pyridin-3-yl)ethyl 4-(2-oxo-1,2-dihydroquinazolin-3(4H)-yl)piperidine-1-carboxylate], for which the IC50 fell in the range of 100 to 1000 nM.
Next, `Cc1cc(CC(OC(=O)N2CCC(N3Cc4cccc(F)c4NC3=O)CC2)c2cccnc2)cc2cn[nH]c12` (stereo not drawn) [Example 59, 2-(7-Methyl-1H-indazol-5-yl)-1-(pyridin-3-yl)ethyl 4-(8-fluoro-2-oxo-1,2-dihydroquinazolin-3(4H)-yl)piperidine-1-carboxylate]: 100 to 1000 nM.
In the case of `Cc1cc(CC(OC(=O)N2CCC(N3Cc4cccc(F)c4NC3=O)CC2)c2ccco2)cc2cn[nH]c12` (stereo not drawn) [Example 60, 1-(Furan-2-yl)-2-(7-methyl-1H-indazol-5-yl)ethyl 4-(8-fluoro-2-oxo-1,2-dihydroquinazolin-3(4H)-yl)piperidine-1-carboxylate], the IC50 lay within 10 to 100 nM.
For `Cc1cc(CC(OC(=O)N2CCC(N3Cc4ccccc4NC3=O)CC2)c2ccc3ccccc3n2)cc2cn[nH]c12` (stereo not drawn) [Example 61, 2-(7-Methyl-1H-indazol-5-yl)-1-(quinolin-2-yl)ethyl 4-(2-oxo-1,2-dihydroquinazolin-3(4H)-yl)piperidine-1-carboxylate], the half-inhibitory concentration (IC50) is less than 10 nM.
With `Cc1cc(C)nc(C(Cc2cc(C)c3[nH]ncc3c2)OC(=O)N2CCC(c3cc4ccccc4[nH]c3=O)CC2)n1` (stereo not drawn) [Example 62, 1-(4,6-Dimethylpyrimidin-2-yl)-2-(7-methyl-1H-indazol-5-yl)ethyl 4-(2-oxo-1,2-dihydroquinolin-3-yl)piperidine-1-carboxylate] the figure was 100 to 1000 nM; with `Cc1cc(C)nc(C(Cc2cc(C)c3[nH]ncc3c2)OC(=O)N2CCC(N3Cc4cccc(F)c4NC3=O)CC2)n1` (stereo not drawn) [Example 63, 1-(4,6-Dimethylpyrimidin-2-yl)-2-(7-methyl-1H-indazol-5-yl)ethyl 4-(8-fluoro-2-oxo-1,2-dihydroquinazolin-3(4H)-yl)piperidine-1-carboxylate], 100 to 1000 nM.
With `Cc1cc(CC(OC(=O)N2CCC(N3Cc4ccccc4NC3=O)CC2)c2cc3ccccc3o2)cc2cn[nH]c12` (stereo not drawn) [Example 64, 1-(Benzofuran-2-yl)-2-(7-methyl-1H-indazol-5-yl)ethyl 4-(2-oxo-1,2-dihydroquinazolin-3(4H)-yl)piperidine-1-carboxylate] the figure was 10 to 100 nM; with `Cc1cc(C[C@@H](OC(=O)N2CCC(c3cc4ccccc4[nH]c3=O)CC2)c2nccn2Cc2cc(F)cc(F)c2)cc2cn[nH]c12` [Example 78, (R)-1-(1-(3,5-difluorobenzyl)-1H-imidazol-2-yl)-2-(7-methyl-1H-indazol-5-yl)ethyl 4-(2-oxo-1,2-dihydroquinolin-3-yl)piperidine-1-carboxylate], less than 10 nM.
Next, `Cc1cc(C[C@@H](NC(=O)N2CCC(N3Cc4ccccc4NC3=O)CC2)c2ncc3ccccn23)cc2cn[nH]c12` [Example 85, (R)-N-(1-(H-Imidazo[1,5-a]pyridin-3-yl)-2-(7-methyl-1H-indazol-5-yl)ethyl)-4-(2-oxo-1,2-dihydroquinazolin-3(4H)-yl)piperidine-1-carboxamide]: less than 10 nM; `CC1=CC(CC(CC(=O)N2CCC(N3Cc4ccccc4NC3=O)CC2)c2nccn2Cc2ccc(C(C)(C)C)cc2)=CC2C=NNC12` (stereo not drawn) [Example 95, 3-(1-(3-(1-(4-tert-Butylbenzyl)-1H-imidazol-2-yl)-4-(7-methyl-3a,7a-dihydro-1H-indazol-5-yl)butanoyl)piperidin-4-yl)-3,4-dihydroquinazolin-2(1H)-one]: less than 10 nM.
`CC1=CC(CC(CC(=O)N2CCC(N3Cc4cccc(F)c4NC3=O)CC2)c2nccn2Cc2ccc(C(C)(C)C)cc2)=CC2C=NNC12` (stereo not drawn) [Example 96, 3-(1-(3-(1-(4-tert-Butylbenzyl)-1H-imidazol-2-yl)-4-(7-methyl-3a,7a-dihydro-1H-indazol-5-yl)butanoyl)piperidin-4-yl)-8-fluoro-3,4-dihydroquinazolin-2(1H)-one]: the IC50 is less than 10 nM.
With `CC1=CC(CC(CC(=O)N2CCC(N3Cc4ccccc4NC3=O)CC2)c2nccn2Cc2ccncc2)=CC2C=NNC12` (stereo not drawn) [Example 97, 3-(1-(4-(7-Methyl-3a,7a-dihydro-1H-indazol-5-yl)-3-(1-(pyridin-4-ylmethyl)-1H-imidazol-2-yl)butanoyl)piperidin-4-yl)-3,4-dihydroquinazolin-2(1H)-one] the figure was less than 10 nM; with `CC1=CC(CC(CC(=O)N2CCC(N3Cc4ccccc4NC3=O)CC2)c2nc3ccccc3[nH]2)=CC2C=NNC12` (stereo not drawn) [Example 98, 3-(1-(3-(1H-Benzo[d]imidazol-2-yl)-4-(7-methyl-3a,7a-dihydro-1H-indazol-5-yl)butanoyl)piperidin-4-yl)-3,4-dihydroquinazolin-2(1H)-one], less than 10 nM.
Turning to `CCn1c(C(CC(=O)N2CCC(N3Cc4ccccc4NC3=O)CC2)CC2=CC3C=NNC3C(C)=C2)nc2ccccc21` (stereo not drawn) [Example 99, 3-(1-(3-(1-Ethyl-1H-benzo [d]imidazol-2-yl)-4-(7-methyl-3a,7a-dihydro-1H-indazol-5-yl)butanoyl)piperidin-4-yl)-3,4-dihydroquinazolin-2(1H)-one], the IC50 was less than 10 nM.
Next, `Cc1cc(C[C@@H](OC(=O)N2CCC(c3cc4ccccc4[nH]c3=O)CC2)c2nc(-c3ccc(F)cc3)no2)cc2cn[nH]c12` [Example 100, (R)-1-(3-(4-Fluorophenyl)-1,2,4-oxadiazol-5-yl)-2-(7-methyl-1H-indazol-5-yl)ethyl 4-(2-oxo-1,2-dihydroquinolin-3-yl)piperidine-1-carboxylate]: 100 to 1000 nM.
Next, `Cc1cc(C[C@@H](OC(=O)N2CCC(N3Cc4ccccc4NC3=O)CC2)c2nc(-c3ccncc3)no2)cc2cn[nH]c12` [Example 101, (R)-2-(7-Methyl-1H-indazol-5-yl)-1-(3-(pyridin-4-yl)-1,2,4-oxadiazol-5-yl)ethyl 4-(2-oxo-1,2-dihydroquinazolin-3(4H)-yl)piperidine-1-carboxylate]: 10 to 100 nM; `Cc1cc(C[C@@H](OC(=O)N2CCC(c3cc4ccccc4[nH]c3=O)CC2)c2nc(-c3cccnc3)no2)cc2cn[nH]c12` [Example 102, (R)-2-(7-Methyl-1H-indazol-5-yl)-1-(3-(pyridin-3-yl)-1,2,4-oxadiazol-5-yl)ethyl 4-(2-oxo-1,2-dihydroquinolin-3-yl)piperidine-1-carboxylate]: 10 to 100 nM.
For `CCOC(=O)c1noc([C@@H](Cc2cc(C)c3[nH]ncc3c2)OC(=O)N2CCC(c3cc4ccccc4[nH]c3=O)CC2)n1` [Example 103, (R)-1-(3-(Ethoxycarbonyl)-1,2,4-oxadiazol-5-yl)-2-(7-methyl-1H-indazol-5-yl)ethyl 4-(2-oxo-1,2-dihydroquinolin-3-yl)piperidine-1-carboxylate], the IC50 is 10 to 100 nM.
Next, “(±)-4-(2-Oxo-1,4-dihydro-2H-quinazolin-3-yl)-piperidine-1-carboxylic acid [2-(7-ethyl-3-methyl-1H-indazol-5-yl)-1-pyridin-4-yl methyl-1H-tetrazol-5-yl)-ethyl]-amide [Example 19]”: less than 10 nM.
